Experimental data: paper PMC5452347, “Serendipitous discovery of light-induced (In Situ) formation of an Azo-bridged dimeric sulfonated naphthol as a potent PTP1B inhibitor” (BMC Biochemistry, 2017)
Read-outs that look alike come from different tables or passages of the source. Values belong to the compound of their own block, whether it stands above or below them.

What was measured:
[1] = biological target: T1, DUSP5 PD(WT) (Homo sapiens, UniProt Q16690); test: DUSP5 PD(WT) in vitro phosphatase assay with pNPP as substrate; type: biochemical
T1 construct: The DUSP5 phosphatase domain (DUSP5 PD(WT)) gene was synthesized by Blue Heron; made in house
T1 sequence (Q16690 178-319 limits assumed): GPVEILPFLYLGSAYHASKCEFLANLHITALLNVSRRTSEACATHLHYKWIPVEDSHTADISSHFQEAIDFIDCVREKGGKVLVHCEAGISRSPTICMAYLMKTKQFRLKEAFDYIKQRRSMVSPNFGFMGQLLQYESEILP
Procedure: The DUSP5 phosphatase domain (DUSP5 PD(WT)) gene was synthesized by Blue Heron (Bothell, WA) and the protein expressed and purified as previously described. To measure the enzymatic activity of wild type phosphatase domain of DUSP5 {DUSP5 PD(WT)} and the inhibitory capacity of selected compounds, an in vitro phosphatase assay was utilized as previously described. Briefly, assays without and with inhibitors were performed in Greiner 96-well clear bottom plates with a total assay volume of 200 μL. The assay buffer contained 100 mM Tris, 100 mM NaCl, 5 mM MgCl2 • 6H2O and 1 mM dithiothreitol (DTT) at pH 7.5. p-nitrophenyl phosphate (pNPP, Sigma Aldrich) 5 mM was used as the substrate. DUSP5 PD(WT) dephosphorylates pNPP to yield p-nitrophenolate, which absorbs at 405 nm, having an extinction coefficient of 18,000 M^-1 cm^-1. The reaction was initiated by the addition of 4 μL of a 29 μM DUPSP5 PD(WT) enzyme stock and absorbance was monitored at 25 °C over time using a Spectramax M5 microplate reader (Molecular Devices). Blanks contained only buffer and pNPP. Negative controls (without inhibitor) contained assay buffer with pNPP and DUSP5 PD(WT).
Appropriate vehicles were added to the blank and negative control wells. A minimum of three replicate wells was run for each condition and at each inhibitor concentration. The replicate wells were averaged to give a single data point. The reaction was initiated upon addition of 4 μL of a 29 μM enzyme stock which was dispensed to each of the wells except the blanks utilizing a single channel pipette. The resulting DUSP5 PD(WT) concentration in the assay buffer was 0.58 μM. The plate was returned to the plate reader, shaken, and absorbance recorded at 25 °C every thirty seconds over a ten to sixty mins time course. In selected experiments the plate was returned to the plate reader following a 10 mins recording for one or two additional 10 mins absorbance recordings.
(§1) Initial rate values obtained from the plate reader were normalized to percent activity relative to the mean negative control rates. Graphpad Prism 6 software was utilized to calculate a non-linear regression (curve fit) using a variable slope model equation, constraining the top and bottom values to 100% activity and 0% activity, respectively, using the following equation:2 vi=Bottom+Top−Bottom/1+10^logIC50−x*HillSlope where v i is the initial rate.
To investigate the mechanism of DUSP5 PD(WT) inhibition by RR601, initial velocity inhibition profiles of RR601 were obtained in a 96-well plate format by measuring DUSP5 PD(WT) initial velocities in assay buffer containing of 1, 3, 9, 27 and 81 mM pNPP and 0, 3, 10, 30 and 75 μM RR601 at each pNPP concentration. Reactions were initiated by the addition of DUSP5 PD(WT) to a final concentration of 0.6 μM in each of the wells, excluding the blank. The data were fitted to a global competitive inhibition model (Graphpad Prism) using the following equation:3 vi=VmaxS/Km1+I/Ki+S where v is the initial velocity, V max the maximum velocity, K m the Michaelis constant, [S] the concentration of pNPP, [I] the concentration of RR601 and K i the inhibition constant.

[2] = biological target: T2, GST-DUSP5 (Homo sapiens, UniProt Q16690); test: In vitro ERK dephosphorylation (pERK) western blot assay; type: biochemical; conditions: full-length GST-DUSP5, pERK as substrate; global fit of three experiments
T2 construct: this assay was done with full-length protein (containing both domains), and using pERK as substrate; made in house
T2 sequence (Q16690 1-384): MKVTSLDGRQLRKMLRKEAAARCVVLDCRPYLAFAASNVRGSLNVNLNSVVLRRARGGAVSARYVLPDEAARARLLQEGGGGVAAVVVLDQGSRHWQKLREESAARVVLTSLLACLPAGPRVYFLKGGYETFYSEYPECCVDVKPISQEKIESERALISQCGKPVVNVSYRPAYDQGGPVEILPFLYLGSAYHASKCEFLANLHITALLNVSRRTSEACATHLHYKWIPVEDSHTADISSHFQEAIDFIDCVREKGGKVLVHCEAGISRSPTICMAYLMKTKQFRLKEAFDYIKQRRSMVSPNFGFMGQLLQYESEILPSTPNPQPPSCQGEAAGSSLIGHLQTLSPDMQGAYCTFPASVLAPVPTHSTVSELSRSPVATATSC

[3] = biological target: T3, PTP1B (Homo sapiens, UniProt P18031); test: PTP1B in vitro phosphatase assay with pNPP; type: biochemical
T3 construct: purchased Creative Biomart
T3 sequence (P18031 1-435): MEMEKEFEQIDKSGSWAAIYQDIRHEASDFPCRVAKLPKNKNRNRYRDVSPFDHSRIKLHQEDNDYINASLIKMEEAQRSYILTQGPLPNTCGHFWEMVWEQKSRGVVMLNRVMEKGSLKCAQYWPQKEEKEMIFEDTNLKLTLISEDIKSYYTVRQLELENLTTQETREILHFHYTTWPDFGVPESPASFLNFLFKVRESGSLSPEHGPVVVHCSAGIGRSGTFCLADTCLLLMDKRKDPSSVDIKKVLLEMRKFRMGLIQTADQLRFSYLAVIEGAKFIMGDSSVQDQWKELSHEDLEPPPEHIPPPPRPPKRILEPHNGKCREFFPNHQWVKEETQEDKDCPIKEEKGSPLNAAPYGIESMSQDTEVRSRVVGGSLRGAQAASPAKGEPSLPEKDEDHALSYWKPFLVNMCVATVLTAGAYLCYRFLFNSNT
Procedure: To examine the capacity of RR601 to inhibit protein-tyrosine phosphatase 1B (PTP1B), (Creative Biomart), activity, an in vitro phosphatase assay was adapted from. Assays with and without inhibitor were performed in Corning 96-well clear bottom plates having a non-binding surface, with a total assay volume of 200 μL. The assay buffer contained 100 mM Tris, 100 mM NaCl, 1 mM EDTA at pH 7.0 and 2.2 mM pNPP as the substrate. […] The reaction was initiated upon addition of 4 μL of a 5.0 μM PTP1B stock, which was dispensed to each of the wells except the blanks using a single channel pipette. The resulting PTPB1 concentration in the assay buffer was 0.1 μM. […] Assays were performed in 96-well plates in a similar manner as reported above. The assay buffer contained 50 mM HEPES (pH 7.4), 2 mM EDTA, 3 mM DTT and 100 mM NaCl. An initial experiment was performed to determine the kinetic parameters of the SHP-2 enzyme. The reaction was initiated with the addition of 4 μL of a 0.35 μM stock SHP-2 enzyme into wells containing 0, 1, 3, 9, 27 and 81 μM pNPP. The SHP-2 assay concentration was 7 nM. Absorbance was recorded every 30 s over a ten minute assay period at a temperature of 25 °C (Additional file 1: Fig. S8). Initial velocities were fit to the Michaelis-Menten equation:1 v=VmaxS/Km+S where v is the initial velocity, V max the maximum velocity, K m the Michaelis constant, and [S] the pNPP concentration. […] Assay buffer contained 7.5 mM pNPP, roughly one-half the value of the Michaelis constant determined from the study above. Reactions were initiated with the addition of 4 μL SHP-2 enzyme, resulting in a final assay enzyme concentration of 7 nM.
as §1

[4] = biological target: T4, SHP-2 (Homo sapiens, UniProt Q06124); test: SHP-2 in vitro phosphatase assay with pNPP; type: biochemical
T4 construct: purchased Creative Biomart
T4 sequence (Q06124 1-593): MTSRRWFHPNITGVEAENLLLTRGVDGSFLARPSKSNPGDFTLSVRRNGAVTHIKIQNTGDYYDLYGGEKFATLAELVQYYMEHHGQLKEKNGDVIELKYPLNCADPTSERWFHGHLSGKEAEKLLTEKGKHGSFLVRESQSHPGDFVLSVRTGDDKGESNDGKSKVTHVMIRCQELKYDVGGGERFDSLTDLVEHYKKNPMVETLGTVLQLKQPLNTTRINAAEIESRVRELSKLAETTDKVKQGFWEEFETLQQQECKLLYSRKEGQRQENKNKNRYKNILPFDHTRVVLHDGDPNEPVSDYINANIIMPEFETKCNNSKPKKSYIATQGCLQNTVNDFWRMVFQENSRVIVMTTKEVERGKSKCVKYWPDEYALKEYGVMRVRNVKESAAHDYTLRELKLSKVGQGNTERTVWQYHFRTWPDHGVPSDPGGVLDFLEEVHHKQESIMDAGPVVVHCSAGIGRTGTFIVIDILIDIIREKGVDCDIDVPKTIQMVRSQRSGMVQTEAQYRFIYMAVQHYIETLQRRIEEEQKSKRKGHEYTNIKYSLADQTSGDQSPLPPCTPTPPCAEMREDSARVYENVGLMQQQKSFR
Source text: as §1

[5] = Nephelometry (compound aggregation); type: physicochemical
Procedure: Nephelometry was performed to determine the relative propensity of the inhibitor compounds to aggregate in solution, based on the light scattering properties of the molecular aggregates. Compound aggregation can lead to artifact inhibitory effects, thus confounding a study of mechanism of inhibition. Compounds were tested for aggregation in a 96-well plate format, final volume 200 μL, using the phosphatase activity assay buffer at pH 7.5 without added pNPP. […] Eight wells were used for blanks and for each compound concentration. Plates were analyzed at two separate gains to determine if the signals were at saturating levels. Progesterone was used as a positive control for compound aggregation. Data were collected using a BMG […] Plus, equipped with a 635 nm laser.

[6] = tested on: SHP2; set-up: method as in PMID 16717135; conditions: read-out: IC50, SHP2 (reported); cited from earlier work
[7] = biological target: T3, PTP1B; set-up: method as in PMID 16717135; conditions: read-out: IC50, PTP1B (reported); cited from earlier work

- IC50 ([1]; MP Biomedicals and RR535 stocks exposed to light 90 days, RR601 freshly prepared, pNPP, ± SE, read-out: DUSP5 PD(WT) inhibitor IC50, assay reaction period 15 – 25 min): 36.5 ± 1.5 µM
- Vmax of DUSP5 PD(WT), Lineweaver-Burk ([1]; in the presence of 3 µM RR601): 0.54 µM/min
- Vmax of DUSP5 PD(WT), Lineweaver-Burk ([1]; in the presence of 10 µM RR601): 0.61 µM/min
- Vmax of DUSP5 PD(WT), Lineweaver-Burk ([1]; in the presence of 30 µM RR601): 0.62 µM/min
- Vmax of DUSP5 PD(WT), Lineweaver-Burk ([1]; in the presence of 75 µM RR601): 0.69 µM/min
- Mechanism of DUSP5 PD(WT) inhibition ([1]; initial velocity studies varying pNPP and RR601): competitive inhibitor
- IC50 ([1]; pNPP substrate, read-out: IC50, DUSP5 PD(WT) (summary value)): 36 µM
- IC50 ([1]; read-out: DUSP5 PD(WT) inhibitor IC50, assay reaction period 0 – 10 min, MP Biomedicals and RR535 stocks exposed to light 90 days, RR601 freshly prepared, pNPP, ± SE): 36.9 ± 3.9 µM
- IC50 ([1]; read-out: DUSP5 PD(WT) inhibitor IC50, assay reaction period 30 – 40 min, MP Biomedicals and RR535 stocks exposed to light 90 days, RR601 freshly prepared, pNPP, ± SE): 34.5 ± 1.4 µM
- IC50 [2]: 4.8 µM
- IC50 ([3]; pNPP 2.2 mM, 10 min recording, ± SE, read-out: IC50, PTP1B): 2.1 ± 0.2 µM
- Selectivity for PTP1B versus DUSP5 ([3]; ratio of IC50 values): 18 fold
- Ki ([4]; 1-30 mM pNPP, 0-3.0 µM RR601, ± SE, read-out: Ki, SHP-2, global competitive model fit): 0.38 ± 0.05 µM
- IC50 ([4]; pNPP 7.5 mM, 10 min reaction, ± SE): 1.1 ± 0.1 µM
Structure (SMILES): O=S(=O)(O)c1cc(O)c2cccc(/N=N/c3cccc4c(O)cc(S(=O)(=O)O)cc34)c2c1 [RR601]
- Mechanism of SHP-2 inhibition ([4]; substrate concentrations less than 30 mM): fit best to a competitive inhibition model

- Concentration at which aggregation begins (nephelometry) ([5]; phosphatase assay buffer pH 7.5 without pNPP): approximately 100 μM
Structure (SMILES): CC(=O)[C@H]1CC[C@H]2[C@@H]3CCC4=CC(=O)CC[C@]4(C)[C@H]3CC[C@]12C [progesterone, reference compound]

Structure (SMILES): Nc1cccc2c(O)cc(S(=O)(=O)O)cc12 [RR535, 1-amino-5-naphthol-7-sulfonic acid]
- Compound aggregation over the concentration range tested (nephelometry) ([5]; 1 to 300 μM, stocks stored in the dark or exposed to room light for seventeen days): little or no measurable aggregation

- IC50, DUSP5 PD(WT) ([1]; pNPP, at 60 minutes, 0.1 to 300 μM): did not inhibit
- IC50 ([1]; pNPP, at 60 minutes, 0.1 to 300 μM, read-out: IC50, DUSP5 PD(WT)): > 3000 µM
- Inhibition of PTP1B activity, initially ([3]; 0.1 to 300 μM, start of assay): did not initially inhibit
- IC50 ([3]; pNPP, continuous monitoring over 60 min, read-out: IC50, PTP1B, after 50 mins of the reaction assay): 723 ± 302 µM
- IC50 ([3]; pNPP, continuous monitoring over 60 min, read-out: IC50, PTP1B, after 60 mins of the reaction assay): 337 ± 130 µM
Structure (SMILES): O=S(=O)(O)c1ccc2cc(N=Nc3cc(S(=O)(=O)O)c4cccnc4c3O)ccc2c1 [NSC-87877]
- IC50 [7]: 1.7 µM
